pIC50: −log10 of the molar value.
How the values were obtained:
CYP2C9 = CYP2C9 (Homo sapiens, UniProt P11712); experiment: CYP2C9 inhibition (fluorescent substrate); assay type: in vitro ADME; conditions: CYP2C9, MFC substrate; read-out: Cyp IC50 2C9
In short: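 IC50 values come from plotting product fluorescence against compound concentration; inhibition lowers formation of the fluorescent metabolite. Ten-point twofold dilutions in co-factor mix were held 10 minutes at 37 °C before the enzyme reaction, also run at 37 °C.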

[1] = tested on: COLO205 colon adenocarcinoma cells (B-Raf V600E); experiment: COLO205 cell growth inhibition (ATPlite); assay type: cell-based; conditions: Homo sapiens, COLO 205, 72 h; COLO205, 3 days incubation
In short: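 Cells plated overnight, then exposed 3 days at 37° C to 8-point 1:3 compound dilutions topping at 10 μM final. Viability read as ATPlite luminescence, proportional to cell number; IC50 from luminescence versus concentration.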

Chain of CYP2C9 (P11712 whole entry): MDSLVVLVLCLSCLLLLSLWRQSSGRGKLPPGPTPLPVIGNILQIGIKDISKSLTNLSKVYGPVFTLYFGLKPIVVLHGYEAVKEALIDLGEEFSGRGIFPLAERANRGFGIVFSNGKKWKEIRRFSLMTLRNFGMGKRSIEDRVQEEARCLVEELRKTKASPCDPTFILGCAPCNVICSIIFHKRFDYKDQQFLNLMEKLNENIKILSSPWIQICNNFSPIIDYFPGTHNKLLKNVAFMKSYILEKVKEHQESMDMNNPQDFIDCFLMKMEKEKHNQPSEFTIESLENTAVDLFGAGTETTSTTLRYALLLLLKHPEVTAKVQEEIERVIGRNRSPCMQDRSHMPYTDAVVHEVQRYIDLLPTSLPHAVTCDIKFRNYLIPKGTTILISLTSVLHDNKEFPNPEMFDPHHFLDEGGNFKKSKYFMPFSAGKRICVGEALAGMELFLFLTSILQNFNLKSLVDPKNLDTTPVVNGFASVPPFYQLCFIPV

CCCS(=O)(=O)Nc1ccc(F)c(C(=O)c2c[nH]c3ncc(-c4ccc(N(C)C)nc4)cc23)c1F [P-2229, Propane-1-sulfonic acid {3-[5-(6-dimethylamino-pyridin-3-yl)-1H-pyrrolo[2,3-b]pyridine-3-carbonyl]-2,4-difluoro-phenyl}-amide]
pIC50 (CYP2C9): 5.00 to 5.30
pIC50 [1]: > 7.00

Source: patent publication US8198273B2, “Compounds and methods for kinase modulation, and indications therefor” (Plexxikon Inc., priority 2009, dated 2012)
